Four compounds from paper PMC6364417, “Kinase inhibitor library screening identifies synergistic drug combinations effective in sensitive and resistant melanoma cells” (Journal of Experimental & Clinical Cancer Research : CR, 2019) can be followed below.

Holding throughout (experiment): Kinase inhibitor library screening, PrestoBlue cell viability, 1 or 10 μM, 72 h
The test system of one data set is A375 cells (parental). The procedure:
(§1) After 72 h of treatment, cell viability was assessed using the PrestoBlue Cell Viability Reagent (ThermoFisher Scientific). Measurements were performed with the CLARIOstar Monochromator microplate reader (BMG Labtech).
(§2) Kinase inhibitor library screening. […] Each cell line was treated in its sensitive form (parental), and also as 2 resistant derivatives, which were made resistant to either Vemurafenib (XP) or Dabrafenib (GP). Drugs were added at 2 different concentrations, 1 and 10 μM, for 72 h and cell viability was assessed using the PrestoBlue Cell Viability assay. Results are depicted as % viability compared to untreated cells. Each cell line was analyzed at least in duplicate. […] (XLSX 95 kb)

Data set [1] relates to IGR37-XP cells (Vemurafenib-resistant). As for the experimental part:
as §1, §2

For data set [2], the system named is IGR37-GP cells (Dabrafenib-resistant). The procedure: as §1, §2
Data set [3] has as its system A375-XP cells (Vemurafenib-resistant). The procedure: as §1, §2
Data set [4] relates to 501Mel-XP cells (Vemurafenib-resistant). As for the experimental part: as §1, §2
The next data set deals with IGR37 cells (parental). The procedure:
as §1, §2

The test system of data set [5] is A375-GP cells (Dabrafenib-resistant). The procedure:
as §1, §2

The subject of data set [6] is 501Mel-GP cells (Dabrafenib-resistant). As for the experimental part:
as §1, §2

For another data set, the system named is 501Mel cells (parental). Conditions: 501Mel Parental, 1μΜ; in %. The procedure:
as §1, §2

On to `FC(F)(F)c1ccc(/C=C/c2nc(COc3ccc(CCCCn4ccnn4)cc3)co2)cc1` [Mubritinib (TAK 165)], for which, in the data set with A375 cells (parental), the “cell viability, A375 Parental, 1μΜ” value is listed as 94.8 and the “cell viability, A375 Parental, 10μΜ” value was found to be 91.7. In addition, in data set [1], the “cell viability, IGR37 XP, 1μΜ” value was determined as 98.3 and the “cell viability, IGR37 XP, 10μΜ” value is 81.5. Further, in data set [2], the “cell viability, IGR37 GP, 1μΜ” value amounted to 99.8 and the “cell viability, IGR37 GP, 10μΜ” value is listed as 95.3. In addition, in data set [3], the “cell viability, A375 XP, 1μΜ” value is reported as 94.9 and the “cell viability, A375 XP, 10μΜ” value is reported as 98.4. In [4], the “cell viability, 501Mel XP, 1μΜ” value came to 92.8 and the “cell viability, 501Mel XP, 10μΜ” value stood at 81.6. In addition, in the data set on IGR37 cells (parental), the “cell viability, IGR37 Parental, 1μΜ” value was found to be 98.7 and the “cell viability, IGR37 Parental, 10μΜ” value is 100.1. In addition, in [5], the “cell viability, A375 GP, 1μΜ” value worked out at 93.7 and the “cell viability, A375 GP, 10μΜ” value amounted to 94.7. The “cell viability, 501Mel GP, 10μΜ” value in data set [6] is 95.8.

`Cc1ccccc1-n1c(Cn2cnc3c(N)ncnc32)nc2cccc(C)c2c1=O` [IC-87114]: in the data set with A375 cells (parental) (A375 Parental, 10μΜ, 72 h), the “Cell viability in kinase inhibitor library screening, A375 Parental, 10μΜ” value came to 90.3. Further, the “Cell viability in kinase inhibitor library screening, A375 Parental, 1μΜ” value in the data set with A375 cells (parental) (A375 Parental, 1μΜ, 72 h) is recorded as 98.8. In [1] (IGR37 XP, 10μΜ, 72 h), this compound had a Cell viability in kinase inhibitor library screening, IGR37 XP, 10μΜ of 77.2%. In data set [1] (IGR37 XP, 1μΜ, 72 h, in %), the “Cell viability in kinase inhibitor library screening, IGR37 XP, 1μΜ” value is reported as 93.3. Further, in data set [2] (IGR37 GP, 10μΜ, 72 h), the Cell viability in kinase inhibitor library screening, IGR37 GP, 10μΜ amounted to 91.5%. Further, the “Cell viability in kinase inhibitor library screening, A375 XP, 1μΜ” value in data set [3] (A375 XP, 1μΜ, 72 h) turned out to be 103.8. In addition, in data set [3] (A375 XP, 10μΜ, 72 h), the “Cell viability in kinase inhibitor library screening, A375 XP, 10μΜ” value turned out to be 102.9. Also, in [4] (501Mel XP, 1μΜ, 72 h, in %), the “Cell viability in kinase inhibitor library screening, 501Mel XP, 1μΜ” value came out at 98.1. For the same compound, the “Cell viability in kinase inhibitor library screening, 501Mel XP, 10μΜ” value in data set [4] (501Mel XP, 10μΜ, 72 h, in %) is on record as 83.6. In addition, the “Cell viability in kinase inhibitor library screening, IGR37 Parental, 1μΜ” value with IGR37 cells (parental) (IGR37 Parental, 1μΜ, 72 h, in %) is given as 97.2. The “Cell viability in kinase inhibitor library screening, IGR37 Parental, 10μΜ” value in the data set on IGR37 cells (parental) (IGR37 Parental, 10μΜ, 72 h, in %) is 99.7. Moreover, the “Cell viability in kinase inhibitor library screening, A375 GP, 1μΜ” value in [5] (A375 GP, 1μΜ, 72 h) stood at 93.5. In addition, the “Cell viability in kinase inhibitor library screening, A375 GP, 10μΜ” value in data set [5] (A375 GP, 10μΜ, 72 h) worked out at 88.8. In addition, the “Cell viability in kinase inhibitor library screening, 501Mel GP, 1μΜ” value in data set [6] (501Mel GP, 1μΜ, 72 h, in %) worked out at 100.1. The “Cell viability in kinase inhibitor library screening, 501Mel GP, 10μΜ” value in data set [6] (501Mel GP, 10μΜ, 72 h, in %) amounted to 87.1.

Take `COc1ccc2c(Oc3ccc(NC(=O)c4c(C)n(CC(C)(C)O)n(-c5ccccc5)c4=O)nc3)ccnc2c1` [AMG458]: the “cell viability (kinase inhibitor library screening)” value was found to be 96.0% in the data set with A375 cells (parental) (A375 Parental, 10μΜ, 72 h); 106.7% in the data set on A375 cells (parental) (A375 Parental, 1μΜ, 72 h); 94.8% in data set [1] (IGR37 XP, 1μΜ, 72 h); 55.7% in data set [1] (IGR37 XP, 10μΜ, 72 h); 97.0% in [2] (IGR37 GP, 1μΜ, 72 h); 88.1% in data set [2] (IGR37 GP, 10μΜ, 72 h). Further, the “cell viability (kinase inhibitor library screening)” value in data set [3] (A375 XP, 1μΜ, 72 h) came out at 106.6%; in [3] (A375 XP, 10μΜ, 72 h), 96.2%; in [4] (501Mel XP, 10μΜ, 72 h), 51.7%; in the data set with IGR37 cells (parental) (IGR37 Parental, 1μΜ, 72 h), 107.7%; in [5] (A375 GP, 1μΜ, 72 h), 107.8%; in data set [5] (A375 GP, 10μΜ, 72 h), 90.9%. Further, the “cell viability (kinase inhibitor library screening)” value in data set [6] (501Mel GP, 1μΜ, 72 h) was 92.9%; in data set [6] (501Mel GP, 10μΜ, 72 h), 70.8%.

On to `Cc1[nH]c(/C=C2\C(=O)Nc3ccccc32)c(C)c1CCC(=O)O` [TSU-68], for which the “cell viability (kinase inhibitor library screening)” value came to 114.1 with A375 cells (parental) (A375 Parental, 1μΜ, in %); 107.4 in the data set with A375 cells (parental) (A375 Parental, 10μΜ, in %); 95.2 in data set [1] (IGR37 XP, 1μΜ, in %); 76.8 in [1] (IGR37 XP, 10μΜ, in %); 97.4 in [2] (IGR37 GP, 1μΜ, in %); 108.6 in data set [3] (A375 XP, 1μΜ, in %). The “cell viability (kinase inhibitor library screening)” value in [3] (A375 XP, 10μΜ, in %) is recorded as 103.8; in data set [4] (501Mel XP, 1μΜ, in %), 99.9; in data set [4] (501Mel XP, 10μΜ, in %) it was 80.9; in [5] (A375 GP, 1μΜ, in %), 113.8; in [5] (A375 GP, 10μΜ, in %), 94.6; in data set [6] (501Mel GP, 1μΜ, in %), 108.8. In addition, the “cell viability (kinase inhibitor library screening)” value was found to be 99.1 in data set [6] (501Mel GP, 10μΜ, in %) and 103.3 in the data set with 501Mel cells (parental).
